# Measured values reported in patent publication US20120202756A1, “USE OF PRODRUGS TO AVOID GI MEDIATED ADVERSE EVENTS” (priority 2009, published 2012).
# Where two headings read alike, the source gives them in different places.
# Key:
# [1] = Stability in USP simulated gastric juice; type: in vitro ADME; details: USP SGF pH 1.1, pepsin […], prodrug 20 μg/mL
# Description: To minimize the direct inhibitory action of this drug on gastric emptying/gut motility—and resultant nausea—the prodrug should not undergo premature chemical or enzymic cleavage back to the parent drug while within the gut lumen.
# [2] = Stability in simulated intestinal juice (FeSSIF); type: in vitro ADME; details: FeSSIF pH 5.0, pancreatin 1%
# Experimental: (§1) To avoid direct interaction between the active drug and the gut microfloral population, the prodrug should not undergo premature chemical or enzymic cleavage back to the parent dug while within the gut lumen. To confirm this the prodrugs were incubated with USP SGF (simulated gastric fluid), FeSSIF (fed state simulated intestinal fluid) and FaSSIF (fasted state simulated intestinal fluid) and remaining prodrug and any generated active drug assayed by use of a qualified LC-MS/MS analytical method.
# Pancreatin was again added at 1%.
# (§2) To minimize the direct inhibitory action of this drug on gastric emptying/gut motility—and resultant nausea—the prodrug should not undergo premature chemical or enzymic cleavage back to the parent drug while within the gut lumen. To confirm this, the prodrugs were incubated with USP SGF (simulated gastric fluid), FeSSIF (fed state simulated intestinal fluid) and FaSSIF (fasted state simulated intestinal fluid) and remaining prodrug, and any generated active drug, assayed by use of a qualified LC-MS/MS analytical method.
# as §1, with “gut,” for “gut microfloral population,”
# [3] = male rats; for Frel: relative bioavailability of donepezil vs dosing donepezil itself, mean
# Experimental: Serial tail vein blood samples were subsequently collected via an indwelling cannuala into EDTA tubes containing a stabilising cocktail (including 6 mg/mL NaF) to prevent post collection enzymic hydrolysis of the prodrug.
# [4] = Stability in simulated intestinal juice (FaSSIF); type: in vitro ADME; details: FaSSIF pH 6.5, pancreatin 1%, prodrug 20 μg/mL
# Experimental: as §1
# (§3) Method—Prodrug (20 μg/mL) in the FaSSIF cocktail comprising sodium taurocholate 3 mM, lecithin 0.75 mM, NaOH 8.7 mM, NaH2PO4. H2O 28.7 mM, NaCl 106 mM, pancreatin 1% (overall pH 6.5) was incubated for 2 h at 37° C. After acidifying the incubation to stop any reaction the amount of prodrug remaining and drug generated were determined using a qualified LC-MS/MS method.
# as §2
# as §3, with “Prodrug” for “Method—Prodrug”
# as §1, with “gut,” for “gut microfloral population,”
# [5] = system: Bacteroides thetaiotamicron; experiment: MIC agar dilution; type: cell-based
# [6] = system: Fusobacterium necrophorum; experiment: MIC agar dilution; type: cell-based; details: clinical isolate
# [7] = system: Clostridium difficile; experiment: MIC agar dilution; type: cell-based; details: Clostridioides difficile
# [8] = system: Bifidobacterium adolescentis; experiment: MIC agar dilution; type: cell-based; details: NCTC11814
# [9] = system: Prevotella bivia; experiment: MIC agar dilution; type: cell-based; details: ATCC29303, ATCC 29303
# [10] = system: Clostridium sporogenes; experiment: MIC agar dilution; type: cell-based; details: ATCC3584, ATCC 3584
# [11] = system: Veillonella spp.; experiment: MIC agar dilution; type: cell-based; details: clinical isolate
# [12] = system: Clostridium bifermentans; experiment: MIC agar dilution; type: cell-based; details: Paraclostridium bifermentans, ATCC638
# [13] = system: Peptostreptococcus magnus; experiment: MIC agar dilution; type: cell-based; details: Finegoldia magna; clinical isolate
# [14] = system: Propionibacterium acnes; experiment: MIC agar dilution
# [15] = system: Helicobacter pylori; experiment: MIC agar dilution
# [16] = system: Veillonella atypical; experiment: MIC agar dilution; type: cell-based; details: NCTC11830
# [17] = system: Clostridium perfringens; experiment: microbe, parasite or virus in culture; type: cell-based
# [18] = system: Veillonella parvula; experiment: MIC agar dilution; type: cell-based; details: NCTC11810
# [19] = system: Peptostreptococcus micros; experiment: MIC agar dilution; type: cell-based; details: Parvimonas micra; clinical isolate
# [20] = system: Bifidobacterium longum; experiment: MIC agar dilution; type: cell-based; details: NCTC11818
# [21] = system: Peptostreptococcus anaerobius; experiment: MIC agar dilution; type: cell-based; details: NCTC11460
# [22] = system: Clostridium novyi; experiment: MIC agar dilution; type: cell-based; details: ATCC19402
# [23] = system: Bacteroides fragilis; experiment: MIC agar dilution
# [24] = system: Eggerthella lenta; experiment: MIC agar dilution; type: cell-based; details: ATCC43055, ATCC 43055
# [25] = Bioavailability of metronidazole from its prodrugs in the rat; details: male, Sprague Dawley, rat, in vivo, po
# Experimental: In order to confirm successful absorption and subsequent hydrolysis of these metronidazole prodrugs, a comparative bioavailability study was undertaken in the rat Methods—Three groups of five male Sprague Dawley rats were orally dosed with either metronidazole itself or its succinyl valine or glutaryl para-amino benzoic acid ester prodrugs. Serial tail vein blood samples were subsequently collected via an indwelling cannuala into EDTA tubes containing a stabilising cocktail (including 6 mg/mL NaF) to prevent post collection enzymic hydrolysis of the prodrug. Separated plasma samples were subjected to bioanalysis for both the prodrugs and metronidazole itself using a qualified LC/MS-MS bioanalytical method.
# [26] = system: Clostridium sordellii; experiment: MIC agar dilution; type: cell-based; details: Paraclostridium sordellii, NCTC13356; NCTC 13356
# [27] = system: Campylobacter jejuni; experiment: MIC agar dilution
# [28] = system: Porphyromonas assacharolyticus; experiment: MIC agar dilution; type: cell-based; details: clinical isolate
# [29] = system: Porphyromonas endodontalis; experiment: MIC agar dilution; type: cell-based; details: clinical isolate
# [30] = system: Campylobacter coli; experiment: MIC agar dilution
# [31] = system: Bifidobacterium dentium; experiment: MIC agar dilution; type: cell-based; details: NCTC11816
# [32] = system: Prevotella denticola; experiment: MIC agar dilution; type: cell-based; details: clinical isolate
# [33] = target: T1, hNav1.1 channel (Homo sapiens, UniProt P35498); experiment: Blockade of cloned Nav1.1 channels expressed in mammalian cells; type: cell-based
# T1 construct: expressed in transfected cells
# Experimental: Blockade of hNav1.1 channel was measured using a stimulus voltage pattern shown in the diagram below: Voltage potentials are indicated in Table 13. The pulse pattern was repeated twice: before and 5 minutes after TA addition and peak current amplitudes at three test pulses were measured (ITP1, TP11 and ITP12).
# Data acquisition and analyses was performed using the lonWorks Quattro™ system operation software (version 2.0.2; Molecular Devices Corporation, Union City, Calif.). Data was corrected for leak current.
# The tonic block was calculated as:
# % Block (Tonic)=(1−ITP1,TA/ITP1,Control)×100%,
# 10 Hz Block—the frequency-dependent block at stimulation frequency 10 Hz was calculated as:
# % Block (10 Hz)=(1−ITP11, TA/ITP11, Control))×100%,
# We define the inactivation state block as decrease in test pulse (TP12) current amplitude due to the conditioning depolarizing pulse (TP11). The inactivation state block was calculated as:
# % Block (inactivation state)=(1−(ITP12, TA/[…])×100%,
# Concentration-response data for the blocks were fit to an equation of the following form: […]
# where [Test] is the concentration of test article, IC50 is the concentration of the test article producing half-maximal inhibition, N is the Hill coefficient, and % Block is the percentage of ion channel current inhibited at each concentration of the test article. Nonlinear least squares fits were solved with the Solver add-in for Excel 2000 (Microsoft, Redmond, Wash.).
# [34] = % of treated patients, cited from earlier work
# [35] = frequency-dependent block at 10 Hz (TP11), read-out: IC50 10 Hz block
# [36] = inactivation state block (TP12), read-out: IC50 Inactivated state
# [37] = tonic block (TP1), read-out: IC50 Tonic block
structure (smiles),measurement,setting,value
"CCOC(=O)c1ccc(NC(=O)CCCC(=O)OC2=C(CC3CCN(Cc4ccccc4)CC3)Cc3cc(OC)c(OC)cc32)cc1 [Donepezil glutaryl PABA ethyl ester, donepezil[glutaryl-PABA ethyl ester]enol ester]","Simulated gastric juice (1 h, 37° C.) % active drug generated",[1],2%
same,"Simulated intestinal juice (2 h, 37° C.) (FeSSIF) % active drug generated",[2],1%
same,Prodrug plasma levels,[3]; oral,undetectable
same,Frel,[3],30%
same,"Simulated intestinal juice (2 h, 37° C.) (FaSSIF) % active drug generated",[4],2%
"CCOC(=O)[C@@H](NC(=O)CCCC(=O)OC1=C(CC2CCN(Cc3ccccc3)CC2)Cc2cc(OC)c(OC)cc21)C(C)C [Donepezil glutaryl valine ethyl ester, donepezil[glutaryl-(S)-valineethyl ester]enol ester]","Simulated gastric juice (1 h, 37° C.) % active drug generated",[1],2%
same,"Simulated intestinal juice (2 h, 37° C.) (FeSSIF) % active drug generated",[2],3%
same,plasma persistence of donepezil,[3]; oral,not in evidence
same,Frel,[3],31%
same,"Simulated intestinal juice (2 h, 37° C.) (FaSSIF) % active drug generated",[4],11%
"Cc1ncc([N+](=O)[O-])n1CCOC(=O)CCCC(=O)Nc1ccc(C(=O)O)cc1 [Metronidazole glutaryl PABA ester, Metronidazole-(glutaryl-PABA) ester]",MIC,[5]; ATCC29741,> 64 µg/mL
same,MIC,[5]; NCTC10582,> 64 µg/mL
same,MIC,[6],8 µg/mL
same,MIC,"[7]; ATCC700057, ATCC 700057",8 µg/mL
same,MIC,"[7]; NCTC13366, NCTC 13366 - NAP1/027",16 µg/mL
same,MIC,[7]; antibiotic-susceptible clinical isolate,8 µg/mL
same,MIC,[8],> 64 µg/mL
same,MIC,[9],32 µg/mL
same,MIC,[10],8 µg/mL
same,MIC,[11],> 64 µg/mL
same,MIC,[12],64 µg/mL
same,MIC,[13],16 µg/mL
same,MIC,[14]; Cutibacterium acnes,> 64 µg/mL
same,MIC,[14]; clinical isolate MIC clindamycin 0.5 mg/L,>64 µg/mL
same,MIC,"[15]; clinical isolate (first listed, r83)",32 µg/mL
same,MIC,"[15]; clinical isolate (second listed, r85)",16 µg/mL
same,MIC,[16],> 64 µg/mL
same,MIC,[17],> 64 µg/mL
same,MIC,[17]; ATCC13124,> 64 µg/mL
same,MIC,[18],> 64 µg/mL
same,MIC,[19],8 µg/mL
same,MIC,[20],> 64 µg/mL
same,MIC,[21],16 µg/mL
same,MIC,[22],32 µg/mL
same,MIC,[23],> 64 µg/mL
same,MIC,[23]; ATCC25285,> 64 µg/mL
same,MIC,[24],32 µg/mL
same,Tmax,[25],2.0 h
same,MIC,[26],64 µg/mL
same,MIC,[27],> 64 µg/mL
same,MIC,[27]; ATCC33560,64 µg/mL
same,MIC,[28],8 µg/mL
same,MIC,[29],4 µg/mL
same,MIC,[30],> 64 µg/mL
same,MIC,[30]; ATCC33559,64 µg/mL
same,MIC,[31],> 64 µg/mL
same,MIC,[32],64 µg/mL
"CCCNCC(COc1ccccc1C(=O)CCc1ccccc1)OC(=O)CCCC(=O)Nc1ccc(C(=O)O)cc1 (stereo not drawn) [Propafenone glutaryl PABA ester, Propafenone (glutaryl-PABA) ester]",IC50,[33]; [35],96.3 µM
same,IC50,[33]; [36],32.2 µM
same,IC50,[33]; [37],464 µM
"CCCNCC(COc1ccccc1C(=O)CCc1ccccc1)OC(=O)CCC(=O)N[C@H](C(=O)O)C(C)C (stereo partly drawn) [Propafenone succinyl valine ester, Propafenone[succinyl-(S)-valine]ester]",IC50,[33]; [35],69.5 µM
same,IC50,[33]; [36],37.2 µM
same,IC50,[33]; [37],151 µM
Cc1cn([C@H]2C=C[C@@H](CO)O2)c(=O)[nH]c1=O [Stavudine],incidence of diarrhoea,[34],44%
same,incidence of nausea and vomiting,[34],39-44%
CC(C)CN(C[C@@H](O)[C@H](Cc1ccccc1)NC(=O)O[C@H]1CCOC1)S(=O)(=O)c1ccc(N)cc1 [amprenavir],incidence of diarrhoea,[34],39%
same,incidence of nausea,[34],74%
same,incidence of vomiting,[34],34%
C#Cc1cccc(Nc2ncnc3cc(OCCOC)c(OCCOC)cc23)c1 [erlotinib],incidence of diarrhoea,[34],50-60%
CCCCN1C[C@H](O)[C@@H](O)[C@H](O)[C@H]1CO [miglustat],incidence of diarrhoea,[34],up to 89%
Cc1ccc(Nc2nccc(N(C)c3ccc4c(C)n(C)nc4c3)n2)cc1S(N)(=O)=O [pazopanib],incidence of diarrhoea,[34],~50%
same,incidence of diarrhoea,[34]; listed as pazapanib,> 50%
"COc1ccc(C(CN(C)C)C2(O)CCCCC2)cc1 (stereo not drawn) [venlefaxine, venlafaxine]",incidence of nausea,[34],Up to 30%
